These results are taken from patent US9878986B2, “Compounds for selective histone deacetylase inhibitors, and pharmaceutical composition comprising the same” (CHONG KUN DANG PHARMACEUTICAL CORP., priority 2013, dated 2018).

One assay addresses T1, HDAC 6 (Homo sapiens, UniProt Q9UBN7).
T1 sequence (Q9UBN7 1-1215): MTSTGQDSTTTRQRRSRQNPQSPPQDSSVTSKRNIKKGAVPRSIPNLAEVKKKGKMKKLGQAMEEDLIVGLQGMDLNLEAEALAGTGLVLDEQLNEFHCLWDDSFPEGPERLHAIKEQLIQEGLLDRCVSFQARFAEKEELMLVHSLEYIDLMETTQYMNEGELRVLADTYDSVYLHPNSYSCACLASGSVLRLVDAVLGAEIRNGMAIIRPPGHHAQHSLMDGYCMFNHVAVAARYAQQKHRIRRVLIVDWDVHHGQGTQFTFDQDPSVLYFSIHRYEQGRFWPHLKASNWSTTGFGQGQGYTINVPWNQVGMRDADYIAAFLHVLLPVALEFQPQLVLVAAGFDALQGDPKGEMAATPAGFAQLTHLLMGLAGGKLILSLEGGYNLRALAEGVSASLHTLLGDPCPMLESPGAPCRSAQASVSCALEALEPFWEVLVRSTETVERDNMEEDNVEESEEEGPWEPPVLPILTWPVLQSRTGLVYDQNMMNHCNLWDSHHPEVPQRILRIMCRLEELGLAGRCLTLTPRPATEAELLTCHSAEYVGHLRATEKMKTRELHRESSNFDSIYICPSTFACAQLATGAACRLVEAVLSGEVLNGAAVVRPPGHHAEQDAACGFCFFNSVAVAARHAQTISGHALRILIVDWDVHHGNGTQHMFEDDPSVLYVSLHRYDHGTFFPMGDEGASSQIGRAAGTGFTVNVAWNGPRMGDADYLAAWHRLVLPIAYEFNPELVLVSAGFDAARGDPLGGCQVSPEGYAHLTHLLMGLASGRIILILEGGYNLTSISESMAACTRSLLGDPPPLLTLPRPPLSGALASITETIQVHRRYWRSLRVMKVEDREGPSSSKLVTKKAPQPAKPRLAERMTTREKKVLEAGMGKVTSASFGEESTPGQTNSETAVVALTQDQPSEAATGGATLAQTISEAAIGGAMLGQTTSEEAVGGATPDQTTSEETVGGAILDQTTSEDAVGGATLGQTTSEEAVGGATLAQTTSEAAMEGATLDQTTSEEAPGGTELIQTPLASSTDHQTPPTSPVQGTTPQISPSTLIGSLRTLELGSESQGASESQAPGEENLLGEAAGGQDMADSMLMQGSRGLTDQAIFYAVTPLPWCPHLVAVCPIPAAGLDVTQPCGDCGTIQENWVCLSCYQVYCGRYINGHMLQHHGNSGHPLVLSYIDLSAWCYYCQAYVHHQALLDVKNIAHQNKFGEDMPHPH
The assay can be described thus: Test of HDAC activities, HDAC6 (fluorimetric). Type of assay: biochemical. On the set-up: purchased Calbiochem 382180. Particulars: samples at 0.1, 1, 10, 100, 1000 nM; 37° C. 60 minutes; fluorescence Ex 390, Em 460; read-out: HDAC inhibitory activities, HDAC6. The procedure: (§1) The HDAC inhibitory activities of test materials were measured using the HDAC1 Fluorimetric Drug Discovery Assay Kit (Enzolifesciences: BML-AK511) and HDAC6 human recombinant (Calbiochem: 382180). In the HDAC1 assay, the samples were treated with concentrations of 100, 1000, and 10000 nM, and in the HDAC6 assay, the samples were treated with concentrations of 0.1, 1, 10, 100, and 1000 nM. After the treatment of the samples, the samples were reacted at 37° C. for 60 minutes, treated with a developer, and then reacted at 37° C. for 30 minutes. Then, the fluorescence intensity (Ex 390, Em 460) was measured using the FlexStation 3 (Molecular device).

The target of another assay is HDAC1 (Homo sapiens, UniProt Q13547). The experiment in a line: Test of HDAC activities, HDAC1 Fluorimetric Drug Discovery Assay Kit. Particulars: samples at 100, 1000, 10000 nM; 37° C. 60 minutes; fluorescence Ex 390, Em 460; read-out: HDAC inhibitory activities, HDAC1. Type of assay: biochemical. On the set-up: purchased Enzolifesciences BML-AK511. On the procedure: as §1
Sequence of HDAC1 (Q13547 whole entry): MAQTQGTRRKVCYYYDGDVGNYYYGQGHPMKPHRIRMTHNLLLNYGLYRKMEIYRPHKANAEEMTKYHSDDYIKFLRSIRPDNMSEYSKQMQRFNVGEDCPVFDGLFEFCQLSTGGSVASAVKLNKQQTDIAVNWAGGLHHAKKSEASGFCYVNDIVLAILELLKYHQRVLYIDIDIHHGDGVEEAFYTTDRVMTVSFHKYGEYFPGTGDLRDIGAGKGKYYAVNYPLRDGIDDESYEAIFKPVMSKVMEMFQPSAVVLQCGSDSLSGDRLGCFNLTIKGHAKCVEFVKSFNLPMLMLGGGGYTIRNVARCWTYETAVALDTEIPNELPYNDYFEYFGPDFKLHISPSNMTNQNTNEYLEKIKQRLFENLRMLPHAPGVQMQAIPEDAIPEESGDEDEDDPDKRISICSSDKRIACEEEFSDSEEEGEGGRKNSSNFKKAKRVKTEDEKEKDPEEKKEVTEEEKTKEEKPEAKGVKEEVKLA

With `CN1CCN(C(=O)N(Cc2ccc(C(=O)NO)cc2)c2ccc(F)cc2F)CC1` [Compound 416, N-(2,4-difluorophenyl)-N-(4-(hydroxycarbamoyl)benzyl)-4-methylpiperazine-1-carboxamide], the IC50 came out at 2 nM at HDAC 6 and 930 nM on HDAC1.

With `O=C(NO)c1ccc(CN(C(=O)N2CCOCC2)c2cccc(-c3ccc4c(c3)OCO4)c2)cc1` [Compound 418, N-(3-(benzo[d][1,3]dioxol-5-yl)phenyl)-N-(4-(hydroxycarbamoyl)benzyl)morpholine-4-carboxamide], the IC50 on HDAC 6 was determined as 2 nM; on HDAC1, 190 nM.

With `CC(=O)N1CC=C(c2cccc(N(Cc3ccc(C(=O)NO)cc3)C(=O)N3CCOCC3)c2)CC1` [Compound 419, N-(3-(1-acetyl-1,2,3,6-tetrahydropyridin-4-yl)phenyl)-N-(4-(hydroxycarbamoyl)benzyl) morpholine-4-carboxamide], the figures for the IC50 on HDAC 6 and at HDAC1 were 5 nM and 460 nM, respectively.

On to `CS(=O)(=O)N1CC=C(c2cccc(N(Cc3ccc(C(=O)NO)cc3)C(=O)N3CCOCC3)c2)CC1` [Compound 420, N-(4-(hydroxycarbamoyl)benzyl)-N-(3-(1-(methylsulfonyl)-1,2,3,6-tetrahydropyridin-4-yl)phenyl)morpholine-4-carboxamide], for which the IC50 was determined as 4 nM on HDAC 6 and 310 nM at HDAC1.

Turning to `Cc1ccc(N(Cc2ccc(C(=O)NO)cc2)C(=O)N2CCCCC2)c(F)c1` [Compound 438, N-(2-fluoro-4-methylphenyl)-N-(4-(hydroxycarbamoyl)benzyl)piperidine-1-carboxamide], the IC50 at HDAC 6 is 4 nM; on HDAC1, 1740 nM.

`Cc1ccc(N(Cc2ccc(C(=O)NO)cc2)C(=O)N2CCOCC2)c(F)c1` [Compound 439, N-(2-fluoro-4-methylphenyl)-N-(4-(hydroxycarbamoyl)benzyl)morpholine-4-carboxamide]: the IC50 on HDAC 6 turned out to be 2 nM; at HDAC1 it was 632 nM.

Turning to `Cc1ccc(N(Cc2ccc(C(=O)NO)cc2)C(=O)N2CC(C)OC(C)C2)c(F)c1` (stereo not shown) [Compound 440, N-(2-fluoro-4-methylphenyl)-N-(4-(hydroxycarbamoyl)benzyl)-2,6-dimethylmorpholine-4-carboxamide], the IC50 is 2 nM on HDAC 6 and 988 nM at HDAC1.

As to `Cc1ccc(N(Cc2ccc(C(=O)NO)cc2)C(=O)N2CCN(C)CC2)c(F)c1` [Compound 441, N-(2-fluoro-4-methylphenyl)-N-(4-(hydroxycarbamoyl)benzyl)-4-methylpiperazine-1-carboxamide], the IC50 was 2 nM on HDAC 6 and 447 nM at HDAC1.

In the case of `CC(=O)N1CCCN(C(=O)N(Cc2ccc(C(=O)NO)cc2)c2ccccn2)CC1` [Compound 450, 4-acetyl-N-(4-(hydroxycarbamoyl)benzyl)-N-(pyridin-2-yl)-1,4-diazepane-1-carboxamide], the IC50 on HDAC 6 was 5 nM; on HDAC1, 6400 nM.

With `O=C(NO)c1ccc(CN(C(=O)N2CCN(C(=O)C3CC3)CC2)c2ccccn2)cc1` [Compound 451, 4-(cyclopropanecarbonyl)-N-(4-(hydroxycarbamoyl)benzyl)-N-(pyridin-2-yl)piperazine-1-carboxamide], the IC50 was determined as 5 nM on HDAC 6 and 4810 nM at HDAC1.

`CCN1CCN(C(=O)N(Cc2ccc(C(=O)NO)cc2)c2ccc(C)cc2F)CC1` [Compound 453, 4-ethyl-N-(2-fluoro-4-methylphenyl)-N-(4-(hydroxycarbamoyl)benzyl)piperazine-1-carboxamide]: the IC50 at HDAC 6 turned out to be 3 nM; at HDAC1, 604 nM.

For `COc1ccccc1N1CCN(C(=O)N(Cc2ccc(C(=O)NO)cc2)c2ccc(C)cc2F)CC1` [Compound 454, N-(2-fluoro-4-methylphenyl)-N-(4-(hydroxycarbamoyl)benzyl)-4-(2-methoxyphenyl)piperazine-1-carboxamide], the IC50 at HDAC 6 was 5 nM; at HDAC1, 1320 nM.

For `Cc1ccc(N(Cc2ccc(C(=O)NO)cc2)C(=O)N2CCN(c3ccc(F)cc3)CC2)c(F)c1` [Compound 455, N-(2-fluoro-4-methylphenyl)-4-(4-fluorophenyl)-N-(4-(hydroxycarbamoyl)benzyl)piperazine-1-carboxamide], the results for the IC50 at HDAC 6 and on HDAC1 were 6 nM and 1980 nM, respectively.

`O=C(NO)c1ccc(CN(C(=O)N2CCCCC2)c2ccc(F)c(Cl)c2)cc1` [Compound 456, N-(3-chloro-4-fluorophenyl)-N-(4-(hydroxycarbamoyl)benzyl)piperidine-1-carboxamide]: the IC50 on HDAC 6 is 3 nM; at HDAC1, 1270 nM.

Consider `CC1CCN(C(=O)N(Cc2ccc(C(=O)NO)cc2)c2ccc(F)c(Cl)c2)CC1` [Compound 457, N-(3-chloro-4-fluorophenyl)-N-(4-(hydroxycarbamoyl)benzyl)-4-methylpiperidine-1-carboxamide], for which the IC50 at HDAC 6 came out at 5 nM; on HDAC1 it was 3360 nM.

For `O=C(NO)c1ccc(CN(C(=O)N2CCOCC2)c2ccc(F)c(Cl)c2)cc1` [Compound 458, N-(3-chloro-4-fluorophenyl)-N-(4-(hydroxycarbamoyl)benzyl)morpholine-4-carboxamide], the IC50 on HDAC 6 was determined as 1 nM; at HDAC1, 474 nM.

With `CC1CCN(C(=O)N(Cc2ccc(C(=O)NO)cc2)c2cccc(C(F)(F)F)c2)CC1` [Compound 459, N-(4-(hydroxycarbamoyl)benzyl)-4-methyl-N-(3-(trifluoromethyl)phenyl)piperidine-1-carboxamide], the IC50 at HDAC 6 was found to be 14 nM; on HDAC1, 7350 nM.

`O=C(NO)c1ccc(CN(C(=O)N2CCCCC2)c2cccc(C(F)(F)F)c2)cc1` [Compound 460, N-(4-(hydroxycarbamoyl)benzyl)-N-(3-(trifluoromethyl)phenyl)piperidine-1-carboxamide]: the results for the IC50 at HDAC 6 and at HDAC1 were 3 nM and 2370 nM, respectively.

In the case of `O=C(NO)c1ccc(CN(C(=O)N2CCCCC2)c2cccc(-c3ccc4c(c3)OCO4)c2)cc1` [Compound 462, N-(3-(benzo[d][1,3]dioxol-5-yl)phenyl)-N-(4-(hydroxycarbamoyl)benzyl)piperidine-1-carboxamide], the IC50 on HDAC 6 was found to be 14 nM; on HDAC1, 1930 nM.

For `O=C(NO)c1ccc(CN(C(=O)N2CCC(O)CC2)c2cccc(-c3ccc4c(c3)OCO4)c2)cc1` [Compound 463, N-(3-(benzo[d][1,3]dioxol-5-yl)phenyl)-4-hydroxy-N-(4-(hydroxycarbamoyl)benzyl)piperidine-1-carboxamide], the values for the IC50 at HDAC 6 and at HDAC1 were 3 nM and 284 nM, respectively.

As to `CC1CN(C(=O)N(Cc2ccc(C(=O)NO)cc2)c2cccc(-c3ccc4c(c3)OCO4)c2)CC(C)O1` (stereo not shown) [Compound 464, N-(3-(benzo[d][1,3]dioxol-5-yl)phenyl)-N-(4-(hydroxycarbamoyl)benzyl)-2,6-dimethylmorpholine-4-carboxamide], the IC50 on HDAC 6 is 10 nM; on HDAC1, 1170 nM.

Turning to `O=C(NO)c1ccc(CN(C(=O)N2CCC(O)(c3ccccc3)CC2)c2cccc(-c3ccc4c(c3)OCO4)c2)cc1` [Compound 465, N-(3-(benzo[d][1,3]dioxol-5-yl)phenyl)-4-hydroxy-N-(4-(hydroxycarbamoyl)benzyl)-4-phenylpiperidine-1-carboxamide], the IC50 on HDAC 6 turned out to be 9 nM; on HDAC1, 2280 nM.

For the compound `CN1CCN(C(=O)N(Cc2ccc(C(=O)NO)cc2)c2cccc(-c3ccc4c(c3)OCO4)c2)CC1` [Compound 466, N-(3-(benzo[d][1,3]dioxol-5-yl)phenyl)-N-(4-(hydroxycarbamoyl)benzyl)-4-methylpiperazine-1-carboxamide], the IC50 at HDAC 6 was determined as 3 nM; at HDAC1, 408 nM.
